Test results published in US8729048B2, “Methods and materials for assessing responsiveness to PARP inhibitors and platinating agents” (Mayo Foundation for Medical Education and Research, priority 2011, dated 2014).

Assays:
[1] = test system: phospho-H2AX and phospho-DNA-PKcs foci in HCC1937 cells; assay: Immunofluorescence / confocal foci in HCC1937 cells; format: cell-based
Method: FIG. 15. Upon PARP inhibition, HCC1937 cells form phospho-H2AX foci that colocalize to regions of activated DNA-PK. (A) Quantitation of cells positive for phospho-H2AX foci in HCC1937 and HCC1937/BRCA1 cells, following treatment with 0.2% DMSO, 250 nM DNA-PKi, 20 μM ABT-888 (ABT), ABT-888 and DNA-PKi, 50 μM etoposide (Etop), or 5 Gy ionizing radiation (IR). Cells were exposed to ABT-888 and/or DNA-PKi for 72 hours, etoposide for 1 hour, or allowed to recover 1 hour post-IR. Results are reported as mean±SEM of 3 independent experiments. (B) Confocal microscopy after staining with antibodies to phospho-H2AX (Ser^139) and phospho-DNA PKcs (Thr^2609) as in FIG. 2D. HCC1937 cells are shown on the left, and reconstituted HCC1937/BRCA1 cells on the right.
Immunofluorescence studies were performed as described elsewhere (Segovis et al., J. Immunol., 182:6933-6942 (2009)) with several modifications. […]
Coverslips were then washed three times with PBS and incubated for 1 h with Alexa Fluor 488- and/or 568-conjugated secondary antibody (Invitrogen) diluted 1:1000. […] Phospho-H2AX positive cells (defined as having >10 foci/cell) were counted on a Zeiss Axioplan microscope. […] Quantitation and image processing were performed using the Zeiss Zen software package and Adobe Photoshop CS3.

[2] = test system: MMEJ activity in PEO4 cells; assay: Microhomology mediated end-joining assay (MMEJ), PEO4; format: cell-based; conditions: 72 hours
Description: FIG. 11. PARP inhibition fails to induce microhomology-mediated end-joining (MMEJ). (A) Schematic of the reporter substrate used to assay for MMEJ activity. Cleavage of pDVG94 with EcoRV and AfeI creates a blunt-ended linearized substrate, with identical 6-bp ends. Direct joining by NHEJ will result in maintenance of both repeats, but MMEJ will excise one repeat, introducing a new BstXI site. PCR across recircularized substrate produces a product of 180 bp, which can be cut into 120 and 60 bp fragments if the BstXI site was created. This figure is adapted from a figure provided elsewhere (Verkaik et al., Eur. J. Immunol., 32:701-709 (2002)). (B) and (C) Agarose gel from a representative MMEJ assay. PEO1 (B, lanes 1-10) and PEO4 (C) cells were treated with increasing concentrations of ABT-888 following transfection with linearized pDVG94. The size of the initial PCR product (180 bp) as well as BstXI cleaved products (120 bp and 60 bp) are indicated. As a positive and negative control, a cell line previously documented to undergo MMEJ (Lou et al., J. Biol. Chem., 279:46359-46362 (2004)), M059J (B, lanes 11 and 12), and a MMEJ-negative line, M059J+DNA-PKcs (B, lanes 13 and 14) were used. Images were captured from one gel and cut to create two panels. […]

CCN1CCN(CC(=O)Nc2ccc(-c3cccc4c(=O)cc(N5CCOCC5)oc34)c3sc4ccccc4c23)CC1 [AZ 12594248]
effect on ABT-888 induced colocalization of phospho-Thr2609-DNA-PK and phospho-Ser139-H2AX in foci [1]: inhibited ABT-888 induced colocalization | effect on formation of H2AX foci ([1]; 250 nM DNA-PKi with 20 μM ABT-888, 72 hours): diminished formation of H2AX foci

C[C@]1(c2nc3c(C(N)=O)cccc3[nH]2)CCCN1 [ABT-888]
induction of MMEJ [2]: not detected
